According to patent publication US4060527A, “Pyrido[2,3-c]-acridine-1-hydroxy-2-carboxylic acid derivatives” (Fuji Chemical Industries, Ltd., priority 1975, dated 1977):
Converted amounts (≈) assume the structure as drawn. Read-outs that look alike come from different tables or passages of the source.

Legend:
Staphylococcus aureus [1] = experiment: Antibacterial activity (MIC) against Staphylococcus aureus as Gram-positive bacterium; type: cell-based; conditions: Staphylococcus aureus; Table 3, class symbols; read-out: Antibacterial Activity (MIC) Staph. aureus
Procedure: (§1) Some of the compounds of this invention were tested as to their antibacterial activity (MIC, mcg/ml) against Staph. aureus as Gram-positive bacterium and E. coli as Gram-negative bacterium. In the table, the antibacterial activity of 0.09 to 1.25 mcg/ml. is indicated as A1, and the antibacterial activity of more than 1.25 mcg/ml. and not more than 2.5 mcg/ml. is indicated as A2.

Escherichia coli [2] = experiment: Antibacterial activity (MIC) against Escherichia coli as Gram-negative bacterium; type: cell-based; conditions: Escherichia coli; Table 3, class symbols; read-out: Antibacterial Activity (MIC) E. coli
Procedure: as §1

in vivo = conditions: mouse
Escherichia coli [3] = experiment: Antibacterial activity (MIC) against Escherichia coli as Gram-negative bacterium; type: cell-based; conditions: for MBC: Table 1, bacteriocidal, read-out: Escherichia coli bacteriocidal action; for MIC: Table 1, bacteriostatic, read-out: Escherichia coli bacteriostatic action (MIC)
Staphylococcus aureus [4] = experiment: Antibacterial activity (MIC) against Staphylococcus aureus as Gram-positive bacterium; type: cell-based; conditions: for MBC: Table 1, bacteriocidal, read-out: Staphylococcus aureus bacteriocidal action; for MIC: Table 1, bacteriostatic, read-out: Staphylococcus aureus bacteriostatic action (MIC)
[5] = Acute toxicity LD50 on mouse; conditions: in vivo

Structure (SMILES) | MIC (Staphylococcus aureus [1]) | MIC (Escherichia coli [2]) | further results
O=C(O)c1cnc2ccc3c(-c4ccc(I)cc4)c4ccccc4nc3c2c1O [Compound F-789, Pyrido[2,3-c]-acridine-1-hydroxy-7-p-iodophenyl-2-carboxylic acid] | 0.09 to 1.25 µg/mL (≈ 0.183 to 2.54 µM) | 0.09 to 1.25 µg/mL (≈ 0.183 to 2.54 µM) | 
Cc1cc2cc3ccccc3nc2c2c(O)c(C(=O)O)cnc12 [Compound F-632] | 0.09 to 1.25 µg/mL (≈ 0.296 to 4.11 µM) | 0.09 to 1.25 µg/mL (≈ 0.296 to 4.11 µM) | LD50 (in vivo; iv): 253 mg/kg; LD50 (in vivo; po): > 5000 mg/kg; MBC (Escherichia coli [3]): 1.25 µg/mL (≈ 4.11 µM); MIC (Escherichia coli [3]): 0.62 µg/mL (≈ 2.04 µM); MBC (Staphylococcus aureus [4]): 2.5 µg/mL (≈ 8.22 µM); MIC (Staphylococcus aureus [4]): 1.25 µg/mL (≈ 4.11 µM); LD50 ([5]; sc): > 3000 mg/kg
CN(C)c1c2ccccc2nc2c1ccc1ncc(C(=O)O)c(O)c12 [Compound F-869, Pyrido[2,3-c]-acridine-1-hydroxy-7-dimethylamino-2-carboxylic acid] | 0.09 to 1.25 µg/mL (≈ 0.27 to 3.75 µM) | 0.09 to 1.25 µg/mL (≈ 0.27 to 3.75 µM) | 
CCc1c2ccccc2nc2c1ccc1ncc(C(=O)O)c(O)c12 [Compound F-635] | 0.09 to 1.25 µg/mL (≈ 0.283 to 3.93 µM) | 0.09 to 1.25 µg/mL (≈ 0.283 to 3.93 µM) | LD50 (in vivo; iv): 186 mg/kg; LD50 (in vivo; po): > 5000 mg/kg; MBC (Escherichia coli [3]): 1.25 µg/mL (≈ 3.93 µM); MIC (Escherichia coli [3]): 1.25 µg/mL (≈ 3.93 µM); MBC (Staphylococcus aureus [4]): 0.62 µg/mL (≈ 1.95 µM); MIC (Staphylococcus aureus [4]): 0.62 µg/mL (≈ 1.95 µM); LD50 ([5]; sc): > 3000 mg/kg
CS(=O)(=O)c1ccc2nc3c(ccc4ncc(C(=O)O)c(O)c43)cc2c1 [Compound F-890, Pyrido[2,3-c]-acridine-1-hydroxy-9-methylsulfonyl-2-carboxylic acid] | 0.09 to 1.25 µg/mL (≈ 0.244 to 3.39 µM) | 0.09 to 1.25 µg/mL (≈ 0.244 to 3.39 µM) | 
O=C(O)c1cnc2c(N(CO)CO)cc3cc4ccccc4nc3c2c1O [Compound F-913, Pyrido[2,3-c]-acridine-1-hydroxy-5-di-(hydroxymethyl)amino-2-carboxylic acid] | 0.09 to 1.25 µg/mL (≈ 0.246 to 3.42 µM) | 0.09 to 1.25 µg/mL (≈ 0.246 to 3.42 µM) | 
O=C(O)c1cnc2ccc3c(Br)c4ccccc4nc3c2c1O [Compound F-841, Pyrido[2,3-c]-acridine-1-hydroxy-7-bromo-2-carboxylic acid] |  | 0.09 to 1.25 µg/mL (≈ 0.244 to 3.39 µM) | 
CCn1cc(C(=O)O)c(=O)c2ccc(C)nc21 [Nalidixic acid, reference compound] |  |  | MBC (Escherichia coli [3]): 6.25 µg/mL (≈ 26.9 µM); MIC (Escherichia coli [3]): 6.25 µg/mL (≈ 26.9 µM); MIC (Staphylococcus aureus [4]): 125 µg/mL (≈ 538 µM); LD50 ([5]; iv): 176 mg/kg; LD50 ([5]; po): 3300 mg/kg; LD50 ([5]; sc): 500 mg/kg
O=C(O)c1cnc2ccc3c(-c4ccccc4Br)c4ccccc4nc3c2c1O [Compound F-777, Pyrido[2,3-c]-acridine-1-hydroxy-7-o-bromophenyl-2-carboxylic acid] | 0.09 to 1.25 µg/mL (≈ 0.202 to 2.81 µM) | 0.09 to 1.25 µg/mL (≈ 0.202 to 2.81 µM) | 
Nc1c2ccccc2nc2c1ccc1ncc(C(=O)O)c(O)c12 [Compound F-849, Pyrido[2,3-c]-acridine-1-hydroxy-7-amino-2-carboxylic acid] | 1.25 to 2.5 µg/mL (≈ 4.09 to 8.19 µM) | 1.25 to 2.5 µg/mL (≈ 4.09 to 8.19 µM) | 
O=C(O)c1cnc2ccc3cc4cc(N(CO)CO)ccc4nc3c2c1O [Compound F-915, Pyrido[2,3-c]-acridine-1-hydroxy-9-di-(hydroxymethyl)amino-2-carboxylic acid] | 0.09 to 1.25 µg/mL (≈ 0.246 to 3.42 µM) | 0.09 to 1.25 µg/mL (≈ 0.246 to 3.42 µM) | 
CCNc1ccc2nc3c(ccc4ncc(C(=O)O)c(O)c43)cc2c1 [Compound F-858, Pyrido[2,3-c]-acridine-1-hydroxy-9-ethylamino-2-carboxylic acid] | 0.09 to 1.25 µg/mL (≈ 0.27 to 3.75 µM) | 0.09 to 1.25 µg/mL (≈ 0.27 to 3.75 µM) | 
O=C(O)c1cnc2ccc3cc4ccc([N+](=O)[O-])cc4nc3c2c1O [Compound F-892, Pyrido[2,3-c]-acridine-1-hydroxy-10-nitro-2-carboxylic acid] | 0.09 to 1.25 µg/mL (≈ 0.268 to 3.73 µM) | 0.09 to 1.25 µg/mL (≈ 0.268 to 3.73 µM) | 
CS(=O)(=O)c1c2ccccc2nc2c1ccc1ncc(C(=O)O)c(O)c12 [Compound F-889, Pyrido[2,3-c]-acridine-1-hydroxy-7-methylsulfonyl-2-carboxylic acid] | 0.09 to 1.25 µg/mL (≈ 0.244 to 3.39 µM) | 0.09 to 1.25 µg/mL (≈ 0.244 to 3.39 µM) | 
O=C(O)c1cnc2c(I)cc3cc4ccccc4nc3c2c1O [Compound F-844, Pyrido[2,3-c]-acridine-1-hydroxy-5-iodo-2-carboxylic acid] | 0.09 to 1.25 µg/mL (≈ 0.216 to 3 µM) | 0.09 to 1.25 µg/mL (≈ 0.216 to 3 µM) | 
O=C(O)c1cnc2c(O)cc3cc4ccccc4nc3c2c1O [Compound F-929, Pyrido[2,3-c]-1,5-dihydroxy-2-carboxylic acid] | 0.09 to 1.25 µg/mL (≈ 0.294 to 4.08 µM) | 0.09 to 1.25 µg/mL (≈ 0.294 to 4.08 µM) | 
O=C(O)c1cnc2ccc3cc4cc(O)ccc4nc3c2c1O [Compound F-931, Pyrido[2,3-c]-1,9-dihydroxy-2-carboxylic acid] | 0.09 to 1.25 µg/mL (≈ 0.294 to 4.08 µM) | 0.09 to 1.25 µg/mL (≈ 0.294 to 4.08 µM) | 
O=C(O)c1cnc2c(CO)cc3cc4ccccc4nc3c2c1O [Compound F-893, Pyrido[2,3-c]-acridine-1-hydroxy-5-hydroxymethyl-2-carboxylic acid] | 1.25 to 2.5 µg/mL (≈ 3.9 to 7.81 µM) | 0.09 to 1.25 µg/mL (≈ 0.281 to 3.9 µM) | 
O=C(O)c1cnc2ccc3c(O)c4ccccc4nc3c2c1O [Compound F-930, Pyrido[2,3-c]-1,7-dihydroxy-2-carboxylic acid] | 0.09 to 1.25 µg/mL (≈ 0.294 to 4.08 µM) | 0.09 to 1.25 µg/mL (≈ 0.294 to 4.08 µM) | 
